Measured values as given in patent US10670605B2, “Cysteine reactive probes and uses thereof” (The Scripps Research Institute, priority 2015, dated 2020).

Key:
Assay in all cases: Competitive isoTOP-ABPP, cell lysates;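 for isoTOP-ABPP reactivity profile ratio, Q15084 C190: Heavy/light ratio DMSO over fragment-treated so higher means more cysteine engagement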;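 for isoTOP-ABPP reactivity profile ratio, Q99873 C109: Heavy/light ratio DMSO over fragment-treated so higher means more cysteine engagement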
Type in all cases: binding
Conditions in all cases: 500 μm
ACAT1 C413 (P24752) = biological target: T1, ACAT1 C413 (P24752) (Homo sapiens, UniProt P24752)
T1 sequence (P24752 34-427): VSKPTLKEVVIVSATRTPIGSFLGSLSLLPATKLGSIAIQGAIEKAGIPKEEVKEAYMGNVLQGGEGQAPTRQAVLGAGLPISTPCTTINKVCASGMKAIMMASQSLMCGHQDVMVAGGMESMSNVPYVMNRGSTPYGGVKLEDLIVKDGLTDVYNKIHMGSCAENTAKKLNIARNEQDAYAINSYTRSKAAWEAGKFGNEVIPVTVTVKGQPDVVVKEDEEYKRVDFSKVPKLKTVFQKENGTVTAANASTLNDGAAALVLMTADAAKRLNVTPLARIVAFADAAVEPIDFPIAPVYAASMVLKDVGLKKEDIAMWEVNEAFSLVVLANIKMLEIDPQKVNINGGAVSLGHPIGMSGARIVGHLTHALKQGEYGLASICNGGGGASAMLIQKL

ACAT1 C119 (P24752) = biological target: T2, ACAT1 C119 (P24752) (Homo sapiens, UniProt P24752)
T2 sequence (P24752 34-427): T1 sequence (P24752 34-427)

SMARCC2 C145 (Q8TAQ2) = SMARCC2 C145 (Q8TAQ2) (Homo sapiens, UniProt Q8TAQ2)
SMARCC2 C145 (Q8TAQ2), sequence (Q8TAQ2 whole entry): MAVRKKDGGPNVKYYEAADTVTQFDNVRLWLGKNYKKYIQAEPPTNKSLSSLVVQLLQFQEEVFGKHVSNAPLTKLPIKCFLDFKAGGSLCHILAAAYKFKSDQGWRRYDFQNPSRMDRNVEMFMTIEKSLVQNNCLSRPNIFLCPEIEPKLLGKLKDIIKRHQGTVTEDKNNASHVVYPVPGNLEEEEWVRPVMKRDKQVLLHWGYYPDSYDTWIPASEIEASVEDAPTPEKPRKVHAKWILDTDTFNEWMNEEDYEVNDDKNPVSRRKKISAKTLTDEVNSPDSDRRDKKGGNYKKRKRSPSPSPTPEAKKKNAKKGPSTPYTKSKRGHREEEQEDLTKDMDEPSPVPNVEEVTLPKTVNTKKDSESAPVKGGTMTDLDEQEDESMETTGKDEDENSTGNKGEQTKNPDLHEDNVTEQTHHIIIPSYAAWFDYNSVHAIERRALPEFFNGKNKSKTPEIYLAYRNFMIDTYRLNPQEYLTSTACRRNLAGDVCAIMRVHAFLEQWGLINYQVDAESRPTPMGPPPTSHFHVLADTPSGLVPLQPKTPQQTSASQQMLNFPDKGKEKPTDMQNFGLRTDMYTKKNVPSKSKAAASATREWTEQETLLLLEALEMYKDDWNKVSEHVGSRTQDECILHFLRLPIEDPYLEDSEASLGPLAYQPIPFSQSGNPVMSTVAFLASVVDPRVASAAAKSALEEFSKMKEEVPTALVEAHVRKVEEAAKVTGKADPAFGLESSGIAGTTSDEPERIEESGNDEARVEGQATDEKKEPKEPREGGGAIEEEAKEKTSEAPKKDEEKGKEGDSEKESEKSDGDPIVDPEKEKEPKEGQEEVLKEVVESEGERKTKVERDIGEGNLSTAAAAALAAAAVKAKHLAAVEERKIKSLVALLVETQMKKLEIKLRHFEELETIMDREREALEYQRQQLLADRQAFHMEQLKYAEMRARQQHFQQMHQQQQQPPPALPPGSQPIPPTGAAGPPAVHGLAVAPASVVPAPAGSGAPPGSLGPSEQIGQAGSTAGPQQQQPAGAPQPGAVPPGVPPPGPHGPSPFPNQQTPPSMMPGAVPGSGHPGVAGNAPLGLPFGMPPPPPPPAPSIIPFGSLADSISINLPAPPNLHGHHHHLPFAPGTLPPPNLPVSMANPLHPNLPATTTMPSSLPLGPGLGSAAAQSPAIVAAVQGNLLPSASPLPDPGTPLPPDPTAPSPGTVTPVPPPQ

STAT3 C259 (P40763) = STAT3 C259 (P40763) (Homo sapiens, UniProt P40763)
STAT3 C259 (P40763), sequence (P40763 whole entry, the tested form may be a part): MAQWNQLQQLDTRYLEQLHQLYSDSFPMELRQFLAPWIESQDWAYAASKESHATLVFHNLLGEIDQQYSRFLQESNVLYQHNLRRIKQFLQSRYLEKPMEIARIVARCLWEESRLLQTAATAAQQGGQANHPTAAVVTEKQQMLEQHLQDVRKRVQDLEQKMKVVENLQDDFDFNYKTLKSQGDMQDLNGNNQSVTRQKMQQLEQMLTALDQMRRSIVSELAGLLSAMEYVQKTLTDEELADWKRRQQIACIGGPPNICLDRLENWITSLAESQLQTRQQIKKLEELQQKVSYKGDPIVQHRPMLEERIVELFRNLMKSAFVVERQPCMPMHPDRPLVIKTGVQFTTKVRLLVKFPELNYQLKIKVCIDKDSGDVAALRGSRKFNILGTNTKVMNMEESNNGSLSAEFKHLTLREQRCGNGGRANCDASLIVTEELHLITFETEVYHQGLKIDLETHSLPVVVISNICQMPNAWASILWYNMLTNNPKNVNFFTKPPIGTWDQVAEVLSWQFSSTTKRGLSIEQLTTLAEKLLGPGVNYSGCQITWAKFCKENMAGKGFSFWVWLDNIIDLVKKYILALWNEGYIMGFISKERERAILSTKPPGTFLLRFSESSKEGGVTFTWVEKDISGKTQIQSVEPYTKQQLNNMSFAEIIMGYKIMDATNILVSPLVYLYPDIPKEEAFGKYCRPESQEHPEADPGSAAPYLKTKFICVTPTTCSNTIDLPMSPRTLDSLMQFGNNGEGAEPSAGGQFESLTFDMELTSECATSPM

PRMT1 C109 (Q99873) = PRMT1 C109 (Q99873) (Homo sapiens, UniProt Q99873);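 for isoTOP-ABPP reactivity profile ratio, Q99873 C109: Heavy/light ratio DMSO over fragment-treated so higher means more cysteine engagement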
PRMT1 C109 (Q99873), sequence (Q99873 whole entry, the tested form may be a part): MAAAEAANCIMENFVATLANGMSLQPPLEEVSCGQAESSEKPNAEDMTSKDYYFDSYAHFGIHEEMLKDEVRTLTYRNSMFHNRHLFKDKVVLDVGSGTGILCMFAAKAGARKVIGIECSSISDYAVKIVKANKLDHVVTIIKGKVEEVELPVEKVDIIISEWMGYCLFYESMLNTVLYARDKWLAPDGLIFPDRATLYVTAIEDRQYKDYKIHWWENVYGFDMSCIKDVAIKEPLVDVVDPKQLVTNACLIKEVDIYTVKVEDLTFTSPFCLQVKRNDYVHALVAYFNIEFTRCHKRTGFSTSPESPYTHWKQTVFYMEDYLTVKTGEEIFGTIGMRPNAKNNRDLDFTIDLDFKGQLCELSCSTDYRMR

PDIA6 C190 (Q15084) = biological target: T3, PDIA6 C190 (Q15084) (Homo sapiens, UniProt Q15084);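 for isoTOP-ABPP reactivity profile ratio, Q15084 C190: Heavy/light ratio DMSO over fragment-treated so higher means more cysteine engagement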
T3 sequence (Q15084 20-440): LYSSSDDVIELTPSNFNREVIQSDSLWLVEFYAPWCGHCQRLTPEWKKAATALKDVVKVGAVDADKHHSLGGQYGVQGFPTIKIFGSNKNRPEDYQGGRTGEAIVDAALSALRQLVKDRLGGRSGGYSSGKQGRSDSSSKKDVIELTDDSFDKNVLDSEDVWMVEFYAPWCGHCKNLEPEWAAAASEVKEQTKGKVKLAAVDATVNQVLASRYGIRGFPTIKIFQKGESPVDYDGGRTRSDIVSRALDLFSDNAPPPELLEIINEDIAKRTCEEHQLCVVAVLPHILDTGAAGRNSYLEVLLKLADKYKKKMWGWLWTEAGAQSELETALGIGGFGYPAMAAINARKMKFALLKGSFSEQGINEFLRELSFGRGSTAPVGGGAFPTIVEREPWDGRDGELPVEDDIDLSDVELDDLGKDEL

UBE2S C118 (Q16763) = biological target: T4, UBE2S C118 (Q16763) (Homo sapiens, UniProt Q16763)
T4 sequence (Q16763 1-222): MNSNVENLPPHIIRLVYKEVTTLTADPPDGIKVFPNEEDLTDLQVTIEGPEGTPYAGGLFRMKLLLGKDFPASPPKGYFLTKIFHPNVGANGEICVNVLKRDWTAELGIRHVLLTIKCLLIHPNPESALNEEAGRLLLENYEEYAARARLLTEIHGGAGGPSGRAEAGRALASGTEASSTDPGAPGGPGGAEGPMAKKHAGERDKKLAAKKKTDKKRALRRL

Structure (SMILES) | isoTOP-ABPP reactivity ratio, P24752_C413 (ACAT1 C413 (P24752); in-vitro_ramos) | isoTOP-ABPP reactivity ratio, P24752_C413 (ACAT1 C413 (P24752); in-vitro_ramos_231) | isoTOP-ABPP reactivity ratio, P24752_C119 (ACAT1 C119 (P24752); in-vitro_ramos) | isoTOP-ABPP reactivity ratio, P24752_C119 (ACAT1 C119 (P24752); in-vitro_ramos_231) | isoTOP-ABPP reactivity ratio, Q8TAQ2_C145 (SMARCC2 C145 (Q8TAQ2); in-vitro_ramos) | isoTOP-ABPP reactivity ratio, Q8TAQ2_C145 (SMARCC2 C145 (Q8TAQ2); in-vitro_ramos_231) | isoTOP-ABPP reactivity ratio, P40763_C259 (STAT3 C259 (P40763); in-vitro_ramos) | isoTOP-ABPP reactivity ratio, Q99873_C109 (PRMT1 C109 (Q99873); in-vitro_ramos) | isoTOP-ABPP reactivity ratio, Q99873_C109 (PRMT1 C109 (Q99873); in-vitro_ramos_231) | isoTOP-ABPP reactivity ratio, Q15084_C190 (PDIA6 C190 (Q15084); in-vitro_ramos_231) | isoTOP-ABPP reactivity ratio, Q16763_C118 (UBE2S C118 (Q16763); in-vitro_ramos) | isoTOP-ABPP reactivity ratio, Q16763_C118 (UBE2S C118 (Q16763); in-vitro_ramos_231) | isoTOP-ABPP reactivity profile ratio, P24752_C413 (ACAT1 C413 (P24752); in-vitro_ramos_231) | isoTOP-ABPP reactivity profile ratio, P24752_C119 (ACAT1 C119 (P24752); in-vitro_ramos_231) | isoTOP-ABPP reactivity profile ratio, Q8TAQ2_C145 (SMARCC2 C145 (Q8TAQ2); in-vitro_ramos_231) | isoTOP-ABPP reactivity profile ratio, P40763_C259 (STAT3 C259 (P40763); in-vitro_ramos_231) | isoTOP-ABPP reactivity profile ratio, Q99873_C109 (PRMT1 C109 (Q99873); in-vitro_ramos_231) | isoTOP-ABPP reactivity profile ratio, Q15084_C190 (PDIA6 C190 (Q15084); in-vitro_ramos_231) | isoTOP-ABPP reactivity profile ratio, Q16763_C118 (UBE2S C118 (Q16763); in-vitro_ramos_231) | isoTOP-ABPP reactivity profile ratio, P24752_C119 (ACAT1 C119 (P24752); in-vitro_ramos) | further results
C=CC(=O)Nc1cc(F)c(N2CCN(C(=O)OC(C)(C)C)CC2)c(F)c1 [compound 38] | 20.0 | 1.1 | 1.7 | 1.0 | 1.9 | 1.1 | 1.5 | 1.4 | 0.9 | 1.1 | 1.0 | 1.0 | – | – | – | – | – | – | – | – | –
C=CC(=O)Nc1cc(C)c(Br)cc1C [compound 40] | – | 0.9 | 0.9 | 0.8 | 1.1 | 0.9 | 1.4 | 1.3 | 0.8 | 0.9 | 0.8 | 0.9 | – | – | – | – | – | – | – | – | isoTOP-ABPP reactivity ratio, Q15084_C190 (PDIA6 C190 (Q15084); in-vitro_ramos): 1.7
Cc1ccc(C=C(C#N)C(=O)NCCN2CCOCC2)cc1 [compound 41] | 0.9 | 0.8 | 0.8 | 1.0 | 2.8 | 1.8 | – | 0.9 | 0.9 | 1.0 | 3.4 | – | – | – | – | – | – | – | – | – | isoTOP-ABPP reactivity ratio, P40763_C259 (STAT3 C259 (P40763); in-vitro_ramos_231): 0.9
C=CC(=O)N(c1ccccc1)C1CCCCC1 [compound 46] | – | – | – | – | – | – | – | – | – | – | – | – | 1.1 | 0.8 | 1.0 | 1.2 | 0.8 | 0.9 | 1.0 | – | –
O=C(CCl)Nc1ccc(-c2ccccc2)cc1 [compound 52] | – | – | – | – | – | – | – | – | – | – | – | – | 1.9 | 1.4 | 0.9 | 2.2 | 0.9 | 1.0 | 1.2 | 0.8 | isoTOP-ABPP reactivity profile ratio, P24752_C413 (ACAT1 C413 (P24752); in-vitro_ramos): 1.5; isoTOP-ABPP reactivity profile ratio, Q8TAQ2_C145 (SMARCC2 C145 (Q8TAQ2); in-vitro_ramos): 1.8; isoTOP-ABPP reactivity profile ratio, Q99873_C109 (PRMT1 C109 (Q99873); in-vitro_ramos): 1.3; isoTOP-ABPP reactivity profile ratio, Q15084_C190 (PDIA6 C190 (Q15084); in-vitro_ramos): 1.9
C=CC(=O)N1CCC(Cc2ccccc2)CC1 [compound 53] | – | – | – | – | – | – | – | – | – | – | – | – | 1.0 | 0.9 | – | – | 0.9 | 1.0 | 1.0 | 0.7 | isoTOP-ABPP reactivity profile ratio, Q8TAQ2_C145 (SMARCC2 C145 (Q8TAQ2); in-vitro_ramos): 1.2; isoTOP-ABPP reactivity profile ratio, P40763_C259 (STAT3 C259 (P40763); in-vitro_ramos): 1.9; isoTOP-ABPP reactivity profile ratio, Q99873_C109 (PRMT1 C109 (Q99873); in-vitro_ramos): 1.1; isoTOP-ABPP reactivity profile ratio, Q15084_C190 (PDIA6 C190 (Q15084); in-vitro_ramos): 1.0; isoTOP-ABPP reactivity profile ratio, Q16763_C118 (UBE2S C118 (Q16763); in-vitro_ramos): 0.8
